Patent US20220119354A1, “DIAMINO-SUBSTITUTED PYRIDINES AND PYRIMIDINES AS HERBICIDES” (FMC Corporation, priority 2019, published 2022)

How the values were obtained:
Type in all cases: in vivo
[1] = test system: barnyardgrass (Echinochloa crus-galli); experiment: Test A preemergence, barnyardgrass; details: 0 to 100 scale; for Barnyardgrass plant response rating: 0 is no effect, 100 is complete control
In short: (§1)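 Pots of loam–sand mix; preemergence directed soil spray at sowing, postemergence spray at one- to two-leaf stage. Readout: visual injury vs untreated controls, ~10 d, 0–100 scale.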

[2] = test system: kochia (Kochia scoparia); experiment: Test A preemergence, kochia; details: 0 to 100 scale; for Kochia plant response rating: 0 is no effect, 100 is complete control
In short: as §1

[3] = test system: ragweed (common ragweed, Ambrosia elatior); experiment: Test A preemergence, ragweed; details: 0 to 100 scale; for Ragweed plant response rating: 0 is no effect, 100 is complete control
In short: as §1

[4] = test system: ryegrass, Italian (Lolium multiflorum); experiment: Test A preemergence, Italian ryegrass; details: 0 to 100 scale; for Ryegrass, Italian plant response rating: 0 is no effect, 100 is complete control
In short: as §1

[5] = test system: foxtail, giant (Setaria faberii); experiment: Test A preemergence, giant foxtail; details: 0 to 100 scale; for Foxtail, Giant plant response rating: 0 is no effect, 100 is complete control
In short: as §1

[6] = test system: pigweed (Amaranthus retroflexus); experiment: Test A preemergence, pigweed; details: 0 to 100 scale; for Pigweed plant response rating: 0 is no effect, 100 is complete control
In short: as §1

[7] = test system: barnyardgrass (Echinochloa crus-galli); experiment: Test A postemergence, barnyardgrass; details: 0 to 100 scale
In short: as §1

[8] = test system: kochia (Kochia scoparia); experiment: Test A postemergence, kochia; details: 0 to 100 scale
In short: as §1

[9] = test system: ragweed (common ragweed, Ambrosia elatior); experiment: Test A postemergence, ragweed; details: 0 to 100 scale
In short: as §1

[10] = test system: ryegrass, Italian (Lolium multiflorum); experiment: Test A postemergence, Italian ryegrass; details: 0 to 100 scale
In short: as §1

[11] = test system: foxtail, giant (Setaria faberii); experiment: Test A postemergence, giant foxtail; details: 0 to 100 scale
In short: as §1

[12] = test system: pigweed (Amaranthus retroflexus); experiment: Test A postemergence, pigweed; details: 0 to 100 scale
In short: as §1

[13] = test system: wheat (Triticum aestivum); experiment: Test A postemergence, wheat; details: 0 to 100 scale
In short: as §1

[14] = test system: corn (Zea mays); experiment: Test A postemergence, corn; details: 0 to 100 scale
In short: as §1

[15] = test system: blackgrass (Alopecurus myosuroides); experiment: Test A postemergence, blackgrass; details: 0 to 100 scale
In short: as §1

[16] = test system: galium (catchweed bedstraw, Galium aparine); experiment: Test A postemergence, galium; details: 0 to 100 scale
In short: as §1

[17] = test system: rice (Oryza sativa); experiment: Test B flooded paddy test, rice; details: Flood, 250 g ai/ha, applied to paddy water, 2-leaf stage, visual evaluation after 13 to 15 d
In short: (§2)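 2-leaf seedlings; pots flooded 3 cm above soil; compound added straight to paddy water; depth maintained. Greenhouse 13–15 d. Visual rating vs controls, 0–100 scale (0 = no effect, 100 = complete control).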

[18] = test system: sedge, umbrella (small-flower umbrella sedge, Cyperus difformis); experiment: Test B flooded paddy test, umbrella sedge; details: Flood, 250 g ai/ha, applied to paddy water, 2-leaf stage, visual evaluation after 13 to 15 d
In short: as §2

[19] = test system: ducksalad (Heteranthera limosa); experiment: Test B flooded paddy test, ducksalad; details: Flood, 250 g ai/ha, applied to paddy water, 2-leaf stage, visual evaluation after 13 to 15 d
In short: as §2

[20] = test system: barnyardgrass (Echinochloa crus-galli); experiment: Test B flooded paddy test, barnyardgrass; details: Flood, 250 g ai/ha, applied to paddy water, 2-leaf stage, visual evaluation after 13 to 15 d
In short: as §2

[21] = 125 g ai/ha, 0 no effect, 100 complete control
[22] = 500 g ai/ha, 0 is no effect, 100 is complete control

C[C@@H](Nc1ncc(C(F)(F)F)c(N)n1)c1cc2ccc(F)cc2o1 [Compound 8, N2-[(1R)-1-(6-fluoro-2-benzofuranyl)ethyl]-5-(trifluoromethyl)-2,4-pyrimidinediamine]
Plant response rating, Barnyardgrass ([1]; 125 g ai/ha): 0 | Plant response rating, Barnyardgrass ([1]; 500 g ai/ha): 90 | Plant response rating, Kochia ([2]; 125 g ai/ha): 60 | Plant response rating, Kochia ([2]; 500 g ai/ha): 90 | Plant response rating, Ragweed ([3]; 125 g ai/ha): 90 | Plant response rating, Ragweed ([3]; 500 g ai/ha): 100 | Plant response rating, Ryegrass, Italian ([4]; 125 g ai/ha): 0 | Plant response rating, Ryegrass, Italian ([4]; 500 g ai/ha): 0 | Plant response rating, Foxtail, Giant ([5]; 125 g ai/ha): 50 | Plant response rating, Foxtail, Giant ([5]; 500 g ai/ha): 100 | Plant response rating, Pigweed ([6]; 125 g ai/ha): 80 | Plant response rating, Pigweed ([6]; 500 g ai/ha): 100 | pest or weed control at 125 g/ha ([7]; Echinochloa crus-galli, post-emergence, 240 h, 125 g ai/ha, read-out: Plant response rating, Barnyardgrass): 50% | pest or weed control at 500 g/ha ([7]; Echinochloa crus-galli, post-emergence, 240 h, 500 g ai/ha, read-out: Plant response rating, Barnyardgrass): 90% | pest or weed control at 125 g/ha ([8]; Bassia scoparia, post-emergence, 240 h, 125 g ai/ha, read-out: Plant response rating, Kochia): 80% | pest or weed control at 500 g/ha ([8]; Bassia scoparia, post-emergence, 240 h, 500 g ai/ha, read-out: Plant response rating, Kochia): 90% | pest or weed control at 125 g/ha ([9]; Ambrosia artemisiifolia, post-emergence, 240 h, 125 g ai/ha, read-out: Plant response rating, Ragweed): 90% | pest or weed control at 500 g/ha ([9]; Ambrosia artemisiifolia, post-emergence, 240 h, 500 g ai/ha, read-out: Plant response rating, Ragweed): 90% | pest or weed control at 125 g/ha ([10]; Lolium multiflorum, post-emergence, 240 h, 125 g ai/ha, read-out: Plant response rating, Ryegrass, Italian): 0% | pest or weed control at 500 g/ha ([10]; Lolium multiflorum, post-emergence, 240 h, 500 g ai/ha, read-out: Plant response rating, Ryegrass, Italian): 0% | pest or weed control at 125 g/ha ([11]; Setaria faberi, post-emergence, 240 h, 125 g ai/ha, read-out: Plant response rating, Foxtail, Giant): 40% | pest or weed control at 500 g/ha ([11]; Setaria faberi, post-emergence, 240 h, 500 g ai/ha, read-out: Plant response rating, Foxtail, Giant): 90% | pest or weed control at 125 g/ha ([12]; Amaranthus retroflexus, post-emergence, 240 h, 125 g ai/ha, read-out: Plant response rating, Pigweed): 100% | pest or weed control at 500 g/ha ([12]; Amaranthus retroflexus, post-emergence, 240 h, 500 g ai/ha, read-out: Plant response rating, Pigweed): 100% | plant injury at 125 g/ha ([13]; Triticum aestivum, post-emergence, 240 h, 125 g ai/ha, read-out: Plant response rating, Wheat): 0% | plant injury at 500 g/ha ([13]; Triticum aestivum, post-emergence, 240 h, 500 g ai/ha, read-out: Plant response rating, Wheat): 0% | Corn plant response rating (crop injury, 0 = no effect, 100 = complete kill) at 125 g/ha ([14]; Zea mays, post-emergence, 240 h, 125 g ai/ha): 0% | Corn plant response rating (crop injury, 0 = no effect, 100 = complete kill) at 500 g/ha ([14]; Zea mays, post-emergence, 240 h, 500 g ai/ha): 20% | pest or weed control at 125 g/ha ([15]; Alopecurus myosuroides, post-emergence, 240 h, 125 g ai/ha, read-out: Plant response rating, Blackgrass): 20% | pest or weed control at 500 g/ha ([15]; Alopecurus myosuroides, post-emergence, 240 h, 500 g ai/ha, read-out: Plant response rating, Blackgrass): 60% | pest or weed control at 125 g/ha ([16]; Galium, post-emergence, 240 h, 125 g ai/ha, read-out: Plant response rating, Galium): 70% | pest or weed control at 500 g/ha ([16]; Galium, post-emergence, 240 h, 500 g ai/ha, read-out: Plant response rating, Galium): 90% | plant injury at 250 g/ha ([17]; Oryza sativa, 360 h, read-out: Plant response rating, Rice (0 to 100 scale, 0 is no effect, 100 is complete control)): 40% | pest or weed control at 250 g/ha ([18]; Cyperus difformis, 360 h, read-out: Plant response rating, Sedge, Umbrella (0 to 100 scale, 0 is no effect, 100 is complete control)): 100% | pest or weed control at 250 g/ha ([19]; Heteranthera limosa, 360 h, read-out: Plant response rating, Ducksalad (0 to 100 scale, 0 is no effect, 100 is complete control)): 98% | pest or weed control at 250 g/ha ([20]; Echinochloa crus-galli, 360 h, read-out: Plant response rating, Barnyardgrass (0 to 100 scale, 0 is no effect, 100 is complete control)): 0%

CC(C)[C@@H](Nc1ncc(C(F)(F)F)c(N)n1)c1cc2ccccc2s1 [Compound 50]
Barnyardgrass plant response rating ([1]; 125 g ai/ha): 0 | Barnyardgrass plant response rating ([1]; 500 g ai/ha): 10 | Kochia plant response rating ([2]; 125 g ai/ha): 40 | Kochia plant response rating ([2]; 500 g ai/ha): 60 | Ragweed plant response rating ([3]; 125 g ai/ha): 0 | Ragweed plant response rating ([3]; 500 g ai/ha): 0 | Ryegrass, Italian plant response rating ([4]; 125 g ai/ha): 0 | Ryegrass, Italian plant response rating ([4]; 500 g ai/ha): 0 | Foxtail, Giant plant response rating ([5]; 125 g ai/ha): 0 | Foxtail, Giant plant response rating ([5]; 500 g ai/ha): 10 | Pigweed plant response rating ([6]; 125 g ai/ha): 0 | Pigweed plant response rating ([6]; 500 g ai/ha): 40 | Plant response rating, Barnyardgrass [7, 21]: 0 | Barnyardgrass plant response rating [7, 22]: 0 | Plant response rating, Kochia [8, 21]: 20 | Kochia plant response rating [8, 22]: 60 | Plant response rating, Ragweed [9, 21]: 0 | Ragweed plant response rating [9, 22]: 30 | Plant response rating, Ryegrass, Italian [10, 21]: 30 | Ryegrass, Italian plant response rating [10, 22]: 0 | Plant response rating, Foxtail, Giant [11, 21]: 0 | Foxtail, Giant plant response rating [11, 22]: 40 | Plant response rating, Pigweed [12, 21]: 60 | Pigweed plant response rating [12, 22]: 90 | Plant response rating, Wheat [13, 21]: 0 | Wheat plant response rating [13, 22]: 0 | Plant response rating, Corn [14, 21]: 0 | Corn plant response rating [14, 22]: 10 | Plant response rating, Blackgrass [15, 21]: 0 | Blackgrass plant response rating [15, 22]: 0 | Plant response rating, Galium [16, 21]: 10 | Galium plant response rating [16, 22]: 20 | Plant response rating, Rice (0 to 100 scale, 0 is no effect, 100 is complete control) [17]: 0 | Plant response rating, Sedge, Umbrella (0 to 100 scale, 0 is no effect, 100 is complete control) [18]: 0 | Plant response rating, Ducksalad (0 to 100 scale, 0 is no effect, 100 is complete control) [19]: 0 | Plant response rating, Barnyardgrass (0 to 100 scale, 0 is no effect, 100 is complete control) [20]: 0
